Marks after values point to notes of the source that are not given here.
Experiments:
Assay type in all cases: in vivo
[1] = test system: Male HLA-B27 rats; assay: HLA rat test for inflammatory bowel disease: stool character (3 = diarrhea; 2 = soft stool; 1 = normal stool)
[2] = test system: Male HLA-B27 rats; assay: HLA-B27 rat model of arthritis: joint scores; conditions: Study 1, oral 20 mg/kg once per day (10 mg/kg earlier)
[3] = test system: Lewis rats; assay: Lewis rat adjuvant-induced arthritis, treatment protocol: tarsal joint histology (synovitis, Mankin); conditions: 50 mg/kg, tarsal joints
[4] = test system: Sexually immature 129 SvE mice; assay: Mouse uterotrophic test procedure (Procedure 2); conditions: compound 50 mg/kg s.c., days 22-25
[5] = test system: Male HLA-B27 rats; assay: HLA-B27 rat test for inflammatory bowel disease: histological scoring of colon; conditions: for Fibrosis (0-2) / Inflammation (0-3) / Lesion depth (0-2) / Total score / Ulceration (0-2): colon histology
Method: Representative metabolites of compounds of the invention were evaluated in the HLA rat standard pharmacological test procedure, which emulates inflammatory bowel disease in humans. The following briefly describes the procedure used and results obtained. […] Louis) and water. Stool quality was observed daily and graded according to the following scale: Diarrhea=3; soft stool=2; normal stool=1. At the end of the study, serum was collected and stored at −70° C. A section of colon was prepared for histological analysis and an additional segment was analyzed for myeloperoxidase activity. In Study A, rats (22-26 weeks old) were dosed subcutaneously once per day for seven days with one of the regimens listed below. […] Histological analysis. Colonic tissue was immersed in 10% neutral buffered formalin. Each specimen of colon was separated into four samples for evaluation. The formalin-fixed tissues were processed in a Tissue-Tek® vaccum infiltration processor (Miles, Inc; West Haven, Conn.) for paraffin embedding. The samples were sectioned at 5 μm and then stained with hematoxylin and eosin (H&E) for blinded histological evaluations using a scale modified after Boughton-Smith. After the scores were completed, the samples were unblinded, and data were tabulated and analyzed by ANOVA linear modeling with multiple mean comparisons. Sections of colonic tissue were evaluated for several disease indicators and given relative scores.

[6] = test system: Sexually immature Sprague-Dawley rats; assay: Rat uterotrophic test procedure (Procedure 1); conditions: compound 2 mg/rat + 17α-ethinyl, 17β-estradiol 0.06 μg/rat s.c. (antagonist mode)
[7] = test system: ovariectomized Sprague-Dawley rats; assay: Bone mineral density in the ovariectomized rat (pQCT, proximal tibia); conditions: compound 10 mg/kg s.c.; 5 weeks
[8] = test system: Male HLA-B27 rats; assay: HLA-B27 rat model of arthritis: joint histology; conditions: Study 1; oral 46 days; 10 mg/kg days 1-24, then 20 mg/kg
Method: At the end of the study, the rats are euthanized with CO2, hindlimbs removed at necropsy and fixed in 10% buffered formalin, and the tarsal joints decalcified and embedded in paraffin. Histologic sections are stained with Hematoxylin and Eosin or […] Green stain. Slides are coded so that the examiner is blinded to the treatment groups. Synovial tissue from tarsal joints is evaluated based on synovial hyperplasia, inflammatory cell infiltration, and pannus formation [Poole and Coombs, International Archives of Allergy & Applied Immunology 54: 97-113 (1977)], as outlined below. [table] […] [table] Representative metabolites of compounds of the invention were evaluated in the HLA-B27 rat standard pharmacological test procedure, which emulates arthritis in humans. The following briefly describes the procedure used and results obtained. Male HLA-B27 rats were obtained from Taconic and provided unrestricted access to a food (PMI® LabDiet 5001) and water. Joint scores and histology were evaluated as described above for the Lewis rat model of adjuvant-induced arthritis. Study 1: […]

[9] = Study C, oral 7 weeks, 10 mg/kg days 1-24, then 20 mg/kg

SMILES: C=Cc1cc(O)cc2nc(-c3ccc(O)c(F)c3)oc12 [Example 24, 2-(3-FLUORO-4-HYDROXYPH ENYL)-7-VI NYL-1,3-BENZOXAZOL-5-OL]
- Stool quality ([1]; Study A, 50 mg/kg s.c.): Stool quality was improved
- Stool Character (group's average score) ([1]; Study A, 50 mg/kg s.c. once per day, Day 1): 2.8
- Stool Character (group's average score) ([1]; Study A, 50 mg/kg s.c. once per day, Day 2): 2
- Stool Character (group's average score) ([1]; Study A, 50 mg/kg s.c. once per day, Day 3): 1.8
- Stool Character (group's average score) ([1]; Study A, 50 mg/kg s.c. once per day, Day 4): 1.6
- Stool Character (group's average score) ([1]; Study A, 50 mg/kg s.c. once per day, Day 5): 1.6
- Stool Character (group's average score) ([1]; Study A, 50 mg/kg s.c. once per day, Day 6): 1.4
- Stool Character (group's average score) ([1]; Study C, oral 10 mg/kg once per day, Day 1): 2.75
- Stool Character (group's average score) ([1]; Study C, oral 10 mg/kg once per day, Day 2): 2.75
- Stool Character (group's average score) ([1]; Study C, oral 10 mg/kg once per day, Day 3): 2.75
- Stool Character (group's average score) ([1]; Study C, oral 10 mg/kg once per day, Day 4): 2.5
- Stool Character (group's average score) ([1]; Study C, oral 10 mg/kg once per day, Day 5): 2
- Stool Character (group's average score) ([1]; Study C, oral 10 mg/kg once per day, Day 6): 2.5
- Stool Character (group's average score) ([1]; Study C, oral 10 mg/kg once per day, Day 7): 2.25
- Stool Character (group's average score) ([1]; Study C, oral 10 mg/kg once per day, Day 8): 2.25
- Stool Character (group's average score) ([1]; Study C, oral 10 mg/kg once per day, Day 9): 2.25
- Stool Character (group's average score) ([1]; Study C, oral 10 mg/kg once per day, Day 10): 2.25
- Stool Character (group's average score) ([1]; Study C, oral 10 mg/kg once per day, Day 11): 2.25
- Stool Character (group's average score) ([1]; Study C, oral 10 mg/kg once per day, Day 12): 1.75
- Stool Character (group's average score) ([1]; Study C, oral 10 mg/kg once per day, Day 13): 2.25
- Stool Character (group's average score) ([1]; Study C, oral 10 mg/kg once per day, Day 14): 2
- Stool Character (group's average score) ([1]; Study C, oral 10 mg/kg once per day, Day 15): 1.75
- Stool Character (group's average score) ([1]; Study C, oral 10 mg/kg once per day, Day 16): 1.75
- Stool Character (group's average score) ([1]; Study C, oral 10 mg/kg once per day, Day 17): 1.75
- Stool Character (group's average score) ([1]; Study C, oral 10 mg/kg once per day, Day 18): 1.75
- Stool Character (group's average score) ([1]; Study C, oral 10 mg/kg once per day, Day 19): 1.75
- Stool Character (group's average score) ([1]; Study C, oral 10 mg/kg once per day, Day 20): 1.75
- Stool Character (group's average score) ([1]; Study C, oral 10 mg/kg once per day, Day 21): 1.75
- Stool Character (group's average score) ([1]; Study C, oral 10 mg/kg once per day, Day 22): 1.75
- Stool Character (group's average score) ([1]; Study C, oral 10 mg/kg once per day, Day 23): 1.75
- Stool Character (group's average score) ([1]; Study C, oral 10 mg/kg once per day, Day 24): 2
- Stool Character (group's average score) ([1]; Study C, oral 20 mg/kg once per day (10 mg/kg earlier), Day 25): 2
- Stool Character (group's average score) ([1]; Study C, oral 20 mg/kg once per day (10 mg/kg earlier), Day 26): 2.25
- Stool Character (group's average score) ([1]; Study C, oral 20 mg/kg once per day (10 mg/kg earlier), Day 27): 1.75
- Stool Character (group's average score) ([1]; Study C, oral 20 mg/kg once per day (10 mg/kg earlier), Day 28): 1.75
- Stool Character (group's average score) ([1]; Study C, oral 20 mg/kg once per day (10 mg/kg earlier), Day 29): 1.5
- Stool Character (group's average score) ([1]; Study C, oral 20 mg/kg once per day (10 mg/kg earlier), Day 30): 1.5
- Stool Character (group's average score) ([1]; Study C, oral 20 mg/kg once per day (10 mg/kg earlier), Day 31): 1.5
- Stool Character (group's average score) ([1]; Study C, oral 20 mg/kg once per day (10 mg/kg earlier), Day 32): 1.5
- Stool Character (group's average score) ([1]; Study C, oral 20 mg/kg once per day (10 mg/kg earlier), Day 33): 1.75
- Stool Character (group's average score) ([1]; Study C, oral 20 mg/kg once per day (10 mg/kg earlier), Day 34): 1.75
- Stool Character (group's average score) ([1]; Study C, oral 20 mg/kg once per day (10 mg/kg earlier), Day 35): 1.5
- Stool Character (group's average score) ([1]; Study C, oral 20 mg/kg once per day (10 mg/kg earlier), Day 36): 1.5
- Stool Character (group's average score) ([1]; Study C, oral 20 mg/kg once per day (10 mg/kg earlier), Day 37): 1.25
- Stool Character (group's average score) ([1]; Study C, oral 20 mg/kg once per day (10 mg/kg earlier), Day 38): 1.75
- Stool Character (group's average score) ([1]; Study C, oral 20 mg/kg once per day (10 mg/kg earlier), Day 39): 1.75
- Stool Character (group's average score) ([1]; Study C, oral 20 mg/kg once per day (10 mg/kg earlier), Day 40): 1.5
- Stool Character (group's average score) ([1]; Study C, oral 20 mg/kg once per day (10 mg/kg earlier), Day 41): 1.75
- Stool Character (group's average score) ([1]; Study C, oral 20 mg/kg once per day (10 mg/kg earlier), Day 42): 1.5
- Stool Character (group's average score) ([1]; Study C, oral 20 mg/kg once per day (10 mg/kg earlier), Day 43): 1.5
- Stool Character (group's average score) ([1]; Study C, oral 20 mg/kg once per day (10 mg/kg earlier), Day 44): 1.5
- Stool Character (group's average score) ([1]; Study C, oral 20 mg/kg once per day (10 mg/kg earlier), Day 45): 1.25
- Stool Character (group's average score) ([1]; Study C, oral 20 mg/kg once per day (10 mg/kg earlier), Day 46): 1.25
- Joint inflammation score ([2]; Day 29): 1.5
- Joint inflammation score ([2]; Day 30): 0.5
- Joint inflammation score ([2]; Day 31): 0.5
- Joint inflammation score ([2]; Day 32): 1.25
- Joint inflammation score ([2]; Day 33): 2
- Joint inflammation score ([2]; Day 34): 2.25
- Joint inflammation score ([2]; Day 35): 2
- Joint inflammation score ([2]; Day 36): 2.25
- Joint inflammation score ([2]; Day 37): 2
- Joint inflammation score ([2]; Day 38): 2.75
- Joint inflammation score ([2]; Day 39): 2.25
- Joint inflammation score ([2]; Day 40): 1.75
- Joint inflammation score ([2]; Day 41): 2
- Joint inflammation score ([2]; Day 42): 2.5
- Joint inflammation score ([2]; Day 43): 4.75
- Joint inflammation score ([2]; Day 44): 3
- Joint inflammation score ([2]; Day 45): 2.75
- Joint inflammation score ([2]; Day 46): 3.25
- Cartilage Cells (0-3), mean ± SD [3]: 0.83 ± 0.75
- Cartilage Structure (0-6), mean ± SD [3]: 1.58 ± 0.49
- Fibroplasia (0-3), mean ± SD [3]: 0.42 ± 0.80
- Inflammatory Cells (0-3), mean ± SD [3]: 1.33 ± 0.41
- Pannus (0-1), mean ± SD [3]: 0.08 ± 0.20
- Saffranin-O/Fast Green Staining (0-4), mean ± SD [3]: 1.25 ± 0.69
- Tidemark Integrity (0-1) [3]: 0
- Total Mankin Score (0-14), mean ± SD [3]: 3.67 ± 1.86
- Total Synovitis Score (0-10), mean ± SD [3]: 3.25 ± 1.54
- mean uterine weight ± SEM [4]: 10.7 ± 0.9 mg
- Total disease score versus vehicle ([5]; Study C, oral): significantly reduced total disease score
- Fibrosis (0-2), mean ± SD [5, 9]: 0*
- Inflammation (0-3), mean ± SD [5, 9]: 0.69 ± 0.24
- Lesion depth (0-2), mean ± SD [5, 9]: 0*
- Total score, mean ± SD [5, 9]: 0.69 ± 0.24
- Ulceration (0-2), mean ± SD [5, 9]: 0*
- Fibrosis (0-2) ([5]; 1 mg/kg s.c., second study): 0.75
- Inflammation (0-3) ([5]; 1 mg/kg s.c., second study): 1.63*
- Lesion depth (0-2) ([5]; 1 mg/kg s.c., second study): 0.88*
- Total score ([5]; 1 mg/kg s.c., second study): 4.4*
- Ulceration (0-2) ([5]; 1 mg/kg s.c., second study): 1.25
- Fibrosis (0-2) ([5]; 10 mg/kg s.c., second study): 0.50*
- Inflammation (0-3) ([5]; 10 mg/kg s.c., second study): 1.63*
- Lesion depth (0-2) ([5]; 10 mg/kg s.c., second study): 0.69*
- Total score ([5]; 10 mg/kg s.c., second study): 3.6*
- Ulceration (0-2) ([5]; 10 mg/kg s.c., second study): 0.81*
- Fibrosis (0-2) ([5]; 50 mg/kg s.c.): 0*
- Inflammation (0-3) ([5]; 50 mg/kg s.c.): 1.05*#
- Lesion depth (0-2) ([5]; 50 mg/kg s.c.): 0.2#
- Total score ([5]; 50 mg/kg s.c.): 1.5*#
- Ulceration (0-2) ([5]; 50 mg/kg s.c.): 0.25*#
- Measurements of tissue injury, colon histology ([5]; composite of two subcutaneous dosing studies): effective in reducing several measurements of tissue injury
- mean uterine weight ± SEM [6]: 80.7 ± 5.3 mg
- Total Bone Mineral Density (mean ± SEM) [7]: 517.56 ± 9.67 mg/mL
- Trabecular Bone Mineral Density (mean ± SEM) [7]: 321.16 ± 9.04 mg/mL
- Mankin score (mean ± SD) [8]: 3.5 ± 1.8
- Synovitis score (mean ± SD) [8]: 3.17 ± 0.3

From patent US20060046968A1, “Prodrug substituted benzoxazoles as estrogenic agents” (priority 2004, published 2006)
